Laboratory results from paper PMC12373995 (Nature Communications, 2025).
Peptide text beside a SMILES is read from it. * marks the point of attachment. Cbz = O=C(OCc1ccccc1)*

Experiments:
[1] = test system: Tamoxifen-resistant patient-derived organoids (PDOs); assay: Organoid live/dead staining; format: cell-based, human; details: PDO
[2] = test system: ERα transcriptional activity (ERE); assay: ERE-luciferase assay, MCF-7; format: cell-based, human; details: Fig. 3i, MCF-7 and T47D
[3] = Serum markers of liver and kidney function in tumor-bearing mice; format: in vivo; details: therapeutic doses
MCF-7 cells = assay: CCK-8 cell viability, MCF-7; format: cell-based, human; details: MCF-7 and T47D, Supplementary Fig. 1e–g
[4] = test system: Tamoxifen-resistant cells LCC2; assay: CCK-8 cell viability, LCC2; format: cell-based, human; details: LCC2, Fig. 7h, i
ESR1 mRNA [5] = assay: Real-time PCR of ESR1 mRNA, MCF-7; format: cell-based, human; details: MCF-7, Supplementary Fig. 1a
PARP and Bcl-2 = PARP and Bcl-2 by western blot, LCC2; format: cell-based, human; details: LCC2, 50 or 100 nM, 48 h
ESR1 mRNA [6] = assay: Real-time PCR of ESR1 mRNA, T47D; format: cell-based, human; details: Supplementary Fig. 1b
LCC2 xenografts = assay: Tamoxifen-resistant LCC2 xenografts in nude mice; format: in vivo
ERα = target: T1, ERα (Homo sapiens, UniProt P03372); format: cell-based; details: MCF-7 and T47D, with Bufalin
T1 sequence (P03372 1-595): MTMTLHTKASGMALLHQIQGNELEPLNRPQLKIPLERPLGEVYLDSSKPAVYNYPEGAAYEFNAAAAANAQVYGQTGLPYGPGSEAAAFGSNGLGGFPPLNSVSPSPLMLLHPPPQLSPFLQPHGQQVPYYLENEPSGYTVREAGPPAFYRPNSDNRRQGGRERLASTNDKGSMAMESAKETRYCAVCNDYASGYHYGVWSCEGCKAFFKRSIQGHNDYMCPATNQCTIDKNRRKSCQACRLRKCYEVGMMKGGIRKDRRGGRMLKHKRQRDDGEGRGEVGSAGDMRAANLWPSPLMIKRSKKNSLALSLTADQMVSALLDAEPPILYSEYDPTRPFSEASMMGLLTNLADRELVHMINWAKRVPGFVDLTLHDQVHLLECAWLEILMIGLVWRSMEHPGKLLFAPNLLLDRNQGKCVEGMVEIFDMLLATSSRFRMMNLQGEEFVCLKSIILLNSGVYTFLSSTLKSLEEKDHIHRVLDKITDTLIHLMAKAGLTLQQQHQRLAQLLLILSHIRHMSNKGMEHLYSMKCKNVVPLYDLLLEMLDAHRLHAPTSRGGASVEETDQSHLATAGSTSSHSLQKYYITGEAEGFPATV

Row | Structure (SMILES) | Cell death by Calcein-AM/PI staining [1] | Transcriptional activity of ERα (ERE luciferase) [2] | Toxicity by serum liver and kidney markers [3] | Anti-cancer effects compared with Fulvestrant (MCF-7 cells) | Anti-cancer effects compared with Fulvestrant [4] | mRNA of ERα (ESR1 mRNA [5]) | Apoptosis markers PARP and Bcl-2 (PARP and Bcl-2) | mRNA of ERα (ESR1 mRNA [6]) | ERα protein expression in tumors (LCC2 xenografts; IHC and western blot) | Anti-tumor activity compared with Fulvestrant (LCC2 xenografts; LCC2 xenografts) | Ki67 in tumors (IHC) (LCC2 xenografts; LCC2 xenografts) | Tumor volumes and weights (LCC2 xenografts; intraperitoneal injection) | Effect of co-treatment on Bufalin-induced ERα decrease (ERα)
1 | C[C@]12CC[C@H](O)C[C@H]1CC[C@@H]1[C@@H]2CC[C@]2(C)[C@@H](c3ccc(=O)oc3)CC[C@]12O [Bufalin] | extensive cell death | weakened the transcriptional activity of ERα | no significant signs of drug-induced toxicity | stronger anti-cancer effects than Fulvestrant | better anti-cancer effects than Fulvestrant | no obvious change | PARP cleavage, and Bcl-2 downregulation | no obvious change | the protein expression of ERα was decreased | superior anti-tumor activity to Fulvestrant | marked Ki67 suppression | the tumor volumes and weights significantly decreased | –
2 | CC(C)C[C@@H](C=O)NC(=O)[C@H](CC(C)C)NC(=O)[C@H](CC(C)C)NC(=O)OCc1ccccc1 [MG-132] (Cbz-Leu-Leu-Leu-aldehyde) | – | – | – | – | – | – | – | – | – | – | – | – | effectively prevented the Bufalin-induced decrease in ERα protein levels
3 | NS(=O)(=O)OC[C@@H]1C[C@@H](n2ccc3c(N[C@H]4CCc5ccccc54)ncnc32)C[C@@H]1O [MLN4924] | – | – | – | – | – | – | – | – | – | – | – | – | reversed the Bufalin-mediated downregulation of ERα
